Reference: patent publication US10111435B2, “Herbicidal compositions containing N-(1,3,4-oxadiazol-2-yl)-aryl carboxylic acid amides” (BAYER CROPSCIENCE AKTIENGESELLSCHAFT, priority 2013, dated 2018)

What was measured:
Format in all cases: in vivo
Bromus sterilis (BROST) = assay: greenhouse post-emergence herbicidal efficacy against BROST
Method: (§1) All trials whose results are shown were conducted in a greenhouse by the methodology specified below. The effect of the inventive herbicidal compositions was examined on the following harmful plants 14 and 21 days after application:
(§2) Echinochloa crus-galli (ECHCG), Eleusine indica (ELEIN), Setaria viridis (SETVI), Amaranthus retroflexus (AMARE), Chenopodium album (CHEAL), Kochia scoparia (KCHSC), Solanum nigrum (SOLNI), Avena fatua (AVEFA), Bromus sterilis (BROST), Lolium multiflorum (LOLMU), Phalaris minor (PHAMI), Poa annua (POAAN), Galium aparine (GALAP), Matricaria inodora (MATIN) and Polygonum convolvulus (POLCO).
(§3) The harmful plant seeds were sown in pots (diameter 8 cm) with sandy loam soil and germinated under optimal conditions. The inventive herbicidal compositions or the active ingredients alone were applied post-emergence to the planted pots with a spray volume of 300 L/ha. The trial was conducted in a greenhouse under optimum growth conditions. The herbicidal effects were assessed visually by comparison of untreated and treated plants. The percentages mean: 0%=no effects, 100%=the plants die off completely).
(§4) The abbreviations mean: • a.i.=active ingredient • E^C=expected value according to Colby (E^C=A+B−A×B/100) • Diff: =difference (%) of measured value from expected value (%) (measured value minus expected value)
(§5) Assessment: • measured value E is greater than E^C:->synergism (+ diff.) • measured value E equals E^C:->additive effect • measured value E is smaller than E^C:->antagonism(− diff.)

[1] = tested on: Polygonum convolvulus (POLCO); assay: greenhouse post-emergence herbicidal efficacy against POLCO
Method: as §1, §2, §3, §4, §5

[2] = tested on: Matricaria inodora (MATIN); assay: greenhouse post-emergence herbicidal efficacy against MATIN
Method: as §1, §2, §3, §4, §5

Galium aparine (GALAP) = assay: greenhouse post-emergence herbicidal efficacy against GALAP
Method: as §1, §2, §3, §4, §5

[3] = tested on: Lolium multiflorum (LOLMU); assay: greenhouse post-emergence herbicidal efficacy against LOLMU
Method: as §1, §2, §3, §4, §5

Poa annua (POAAN) = assay: greenhouse post-emergence herbicidal efficacy against POAAN
Method: as §1, §2, §3, §4, §5

Avena fatua (AVEFA) = assay: greenhouse post-emergence herbicidal efficacy against AVEFA
Method: as §1, §2, §3, §4, §5

Phalaris minor (PHAMI) = assay: greenhouse post-emergence herbicidal efficacy against PHAMI
Method: as §1, §2, §3, §4, §5

[4] = 14 days after application, 2 g of a.i./ha
[5] = 21 days after application, g of a.i./ha: A1-34 50, iodosulfuron-methyl-sodium 2
[6] = 21 days after application, g of a.i./ha: A1-34 200, iodosulfuron-methyl-sodium 2
[7] = 14 days after application, 0.5 g of a.i./ha
[8] = 21 days after application, g of a.i./ha: A1-34 50, iodosulfuron-methyl-sodium 0.5
[9] = 14 days after application, g of a.i./ha: A1-60 2.5, isoproturon 400
[10] = 14 days after application, g of a.i./ha: A1-60 2.5, isoproturon 1600
[11] = 14 days after application, g of a.i./ha: A1-60 10, isoproturon 400
[12] = 14 days after application, g of a.i./ha: A1-60 10, isoproturon 1600
[13] = 21 days after application, g of a.i./ha: A1-60 10, isoproturon 400
[14] = 21 days after application, g of a.i./ha: A1-60 10, isoproturon 1600
[15] = 21 days after application, g of a.i./ha: A1-60 2.5, isoproturon 400
[16] = 21 days after application, g of a.i./ha: A1-7 10, saflufenacil 8
[17] = 14 days after application, g of a.i./ha: A1-7 2.5, saflufenacil 2
[18] = 14 days after application, g of a.i./ha: A1-7 2.5, saflufenacil 8
[19] = 14 days after application, 80 g of a.i./ha
[20] = 14 days after application, 320 g of a.i./ha
[21] = 21 days after application, g of a.i./ha: A1-36 2.5, flurtamone 80
[22] = 21 days after application, g of a.i./ha: A1-36 2.5, flurtamone 320
[23] = 21 days after application, g of a.i./ha: A1-36 10, flurtamone 80
[24] = 21 days after application, g of a.i./ha: A1-36 10, flurtamone 320

COC(=O)c1ccc(I)cc1S(=O)(=O)[N-]C(=O)Nc1nc(C)nc(OC)n1.[Na+] [iodosulfuron-methyl-sodium]
Efficacy (Bromus sterilis (BROST); [4]): 15% | Efficacy (Bromus sterilis (BROST); [5]): 0% | Efficacy (Bromus sterilis (BROST); [6]): 0% | Efficacy [1, 7]: 15% | Efficacy [1, 4]: 30% | Efficacy [1, 8]: 0% | Efficacy [1, 5]: 0% | Efficacy [2, 8]: 70% | Efficacy (Galium aparine (GALAP); [7]): 30% | Efficacy (Galium aparine (GALAP); [8]): 0% | Efficacy (Galium aparine (GALAP); [6]): 25% | Efficacy [3, 7]: 0% | Efficacy [3, 4]: 30% | Efficacy (Poa annua (POAAN); [7]): 0% | Efficacy (Poa annua (POAAN); [4]): 20% | Efficacy (Avena fatua (AVEFA); [6]): 5% | Efficacy (Phalaris minor (PHAMI); [7]): 10%

CC(C)c1ccc(NC(=O)N(C)C)cc1 [isoproturon]
Efficacy (Bromus sterilis (BROST); [9]): 0% | Efficacy (Bromus sterilis (BROST); [10]): 5% | Efficacy (Bromus sterilis (BROST); [11]): 0% | Efficacy (Bromus sterilis (BROST); [12]): 5% | Efficacy (Bromus sterilis (BROST); [13]): 0% | Efficacy (Bromus sterilis (BROST); [14]): 0% | Efficacy [2, 15]: 90% | Efficacy [2, 13]: 90% | Efficacy (Galium aparine (GALAP); [9]): 10% | Efficacy (Galium aparine (GALAP); [10]): 20% | Efficacy (Galium aparine (GALAP); [11]): 10% | Efficacy (Galium aparine (GALAP); [12]): 20% | Efficacy (Galium aparine (GALAP); [15]): 0% | Efficacy (Galium aparine (GALAP); 21 days after application, g of a.i./ha: A1-60 2.5, isoproturon 1600): 0% | Efficacy (Galium aparine (GALAP); [13]): 0% | Efficacy (Galium aparine (GALAP); [14]): 0% | Efficacy [3, 9]: 0% | Efficacy [3, 10]: 15% | Efficacy [3, 11]: 0% | Efficacy [3, 12]: 15% | Efficacy [3, 13]: 0% | Efficacy [3, 14]: 0% | Efficacy (Poa annua (POAAN); [10]): 80% | Efficacy (Poa annua (POAAN); [11]): 60% | Efficacy (Poa annua (POAAN); [12]): 80% | Efficacy (Poa annua (POAAN); [13]): 30% | Efficacy (Avena fatua (AVEFA); [9]): 0% | Efficacy (Avena fatua (AVEFA); [11]): 0% | Efficacy (Avena fatua (AVEFA); [12]): 35% | Efficacy (Avena fatua (AVEFA); [15]): 0% | Efficacy (Avena fatua (AVEFA); [13]): 0% | Efficacy (Avena fatua (AVEFA); [14]): 15% | Efficacy (Phalaris minor (PHAMI); [9]): 35% | Efficacy (Phalaris minor (PHAMI); [11]): 35% | Efficacy (Phalaris minor (PHAMI); [12]): 80% | Efficacy (Phalaris minor (PHAMI); [15]): 15% | Efficacy (Phalaris minor (PHAMI); [13]): 15%

CC(C)N(C)S(=O)(=O)NC(=O)c1cc(-n2c(=O)cc(C(F)(F)F)n(C)c2=O)c(F)cc1Cl [saflufenacil]
Efficacy (Bromus sterilis (BROST); [16]): 5% | Efficacy [1, 17]: 0% | Efficacy [1, 18]: 10% | Efficacy ([1]; 14 days after application, g of a.i./ha: A1-7 10, saflufenacil 2): 0% | Efficacy ([1]; 14 days after application, g of a.i./ha: A1-7 10, saflufenacil 8): 10% | Efficacy ([1]; 21 days after application, g of a.i./ha: A1-7 2.5, saflufenacil 2): 0% | Efficacy ([1]; 21 days after application, g of a.i./ha: A1-7 2.5, saflufenacil 8): 0% | Efficacy ([1]; 21 days after application, g of a.i./ha: A1-7 10, saflufenacil 2): 0% | Efficacy [1, 16]: 0% | Efficacy [3, 17]: 0% | Efficacy [3, 18]: 10% | Efficacy (Avena fatua (AVEFA); [17]): 0%

CNC1=C(c2cccc(C(F)(F)F)c2)C(=O)C(c2ccccc2)O1 (stereo not drawn) [flurtamone]
Efficacy (Bromus sterilis (BROST); [19]): 0% | Efficacy (Bromus sterilis (BROST); [20]): 10% | Efficacy (Bromus sterilis (BROST); [21]): 0% | Efficacy (Bromus sterilis (BROST); [22]): 10% | Efficacy [1, 19]: 50% | Efficacy [1, 20]: 30% | Efficacy [1, 23]: 0% | Efficacy [1, 24]: 30% | Efficacy [2, 19]: 50% | Efficacy [2, 20]: 50% | Efficacy [2, 21]: 25% | Efficacy [2, 22]: 30% | Efficacy [2, 23]: 25% | Efficacy [2, 24]: 30% | Efficacy (Galium aparine (GALAP); [19]): 40% | Efficacy (Galium aparine (GALAP); [20]): 80% | Efficacy (Galium aparine (GALAP); [21]): 0% | Efficacy (Galium aparine (GALAP); [23]): 0% | Efficacy (Galium aparine (GALAP); [24]): 70% | Efficacy [3, 19]: 30% | Efficacy [3, 23]: 20% | Efficacy (Avena fatua (AVEFA); [19]): 0% | Efficacy (Avena fatua (AVEFA); [20]): 15% | Efficacy (Avena fatua (AVEFA); [21]): 0% | Efficacy (Avena fatua (AVEFA); [22]): 0% | Efficacy (Avena fatua (AVEFA); [23]): 0% | Efficacy (Avena fatua (AVEFA); [24]): 0% | Efficacy (Phalaris minor (PHAMI); [19]): 40% | Efficacy (Phalaris minor (PHAMI); [20]): 50% | Efficacy (Phalaris minor (PHAMI); [23]): 40%
